The source of these data is US11351130B2, “Prevention and reversal of inflammation induced DNA damage” (Indiana University Research and Technology Corporation, priority 2017, dated 2022).

One data set relates to NFκB. Description: NF-κB luciferase reporter transactivation assay. In kind it is cell-based. The conditions noted are these: read-out: inhibition of NFκB binding to the reporter construct, IC50. As for the experimental part:
Reporter assays were performed as previously described (Georgiadis et al., 2008; Kelley et al., 2011; Cardoso et al., 2012b; Luo et al., 2012). Cells were transfected with NF-κB-Luciferase construct containing an NF-κB-response promoter and driving the expression of a luciferase gene and a Renilla luciferase control reporter vector pRL-CMV. After a 24-hour transfection period, cells were lysed, and Firefly and Renilla luciferase activities were assayed using Renilla luciferase activity for normalization. All of the transfection experiments were performed in triplicate and repeated at least three times in independent experiments. Data are expressed as mean±standard error from a representative experiment, and Student's t tests were performed.
On the technique in general: A reporter such as luciferase makes a cellular process visible.

Data set [1] has as its system sensory neuronal cultures. Description: Neuronal cell viability (trypan blue exclusion). The class given is cell-based. To be noted: for effect on cisplatin-induced cell death: 20 μM for 48 hours prior to and throughout the cisplatin treatment (24 hours); for cell death, drug alone: 20 or 40 μM, 72 hours (data not shown). As for the experimental part:
(§1) Primary cultures of sensory neurons were harvested and maintained as previously described (Vasko et al., 2005). Briefly, adult male Sprague-Dawley rats (150-175 g; Harlan, Indianapolis, Ind.) were euthanized by CO2 asphyxiation and dorsal root ganglia (DRG) dissected from all spinal levels, transferred to into a collagenase solution (1 mg/ml), incubated for 1 hour at 37° C., then dissociated by mechanical agitation. Approximately 30,000 cells or 60,000 cells were plated into each well of 12-well or 6-well culture plates, respectively. All culture dishes were precoated with poly-D-lysine and laminin. Cells were maintained in F-12 media supplemented with 10% horse serum, 2 mM glutamine, 100 μg/ml Normocin™, 50 μg/ml penicillin, 50 μg/ml streptomycin, 50 μM 5-fluoro-2′-deoxyuridine (Invitrogen), 150 μM uridine, and 30 ng/ml of NGF in 3% CO2 at 37° C. Growth medium was changed every other day. Experiments were performed after cells were maintained in culture for 12-14 days.
Sensory neuronal culture trypan blue exclusion analysis was performed as previously described (Vasko et al., 2011). Cells were detached by adding a 0.05% trypsin-EDTA solution and media to each well. An equal volume of 0.4% (w/v) trypan blue in PBS was added to the cell suspension and the numbers of living cells (i.e., those that exclude the dye) were counted under a phase contrast microscope using a hemacytometer. Percent survival was calculated as the percent of live cells divided by the total cell number (including dead and live cells).

Data set [2] concerns the target T1, APE1 (Homo sapiens, UniProt P27695). Description: AP endonuclease DNA repair assay. To be noted: APX2009 in the nanomolar range. The class given is biochemical. As for the experimental part:
Inhibition or enhancement of APE1 DNA repair endonuclease activity was performed as previously described (Bapat et al., 2010). The APE1 repair activity assay was performed in a plate assay using two annealed oligonucleotides (5′-6-FAM-GCCCCC*[…]-3′ (SEQ ID NO:3) and 3′-Q-[…]-5′ (SEQ ID NO:4)) containing a quencher on one strand and a fluorescent 6-FAM label with tetrahydrofuran as an AP site mimic. Oligo cleavage at the AP mimic site results in 6-FAM release and detection. The fluorescence was read at five, one-minute intervals using a Tecan Ultra plate reader (Chemical Genomics Core, Indiana University School of Medicine). The rate of the reaction was used to determine the change in APE1 repair activity as compared to the vehicle control.

For data set [3], the system named is sensory neurons in culture. The class given is cell-based, rat. The conditions noted are these: for effect on cisplatin-induced reduction in capsaicin-evoked CGRP release / CGRP release, drug alone: 10 μM; for effect on cisplatin-induced reduction in capsaicin-evoked CGRP release: 72 hour treatment, 10 μM cisplatin; for capsaicin-stimulated release of CGRP, drug alone: 20 μM. As for the experimental part: as §1
For release experiments, cell cultures were washed with HEPES buffer consisting of (in mM) 25 HEPES, 135 NaCl, 3.5 KCl, 2.5 CaCl2, 1 MgCl2, 3.3 D-glucose, and 0.1% bovine serum albumin, pH 7.4 and maintained at 37° C. They then were incubated for successive 10-minute intervals with 0.4 ml of HEPES buffer alone (basal release), with buffer containing 30 nM capsaicin, then with buffer alone (to assess return to basal release). After each incubation, the buffer was removed and the amount of immunoreactive calcitonin-gene related peptide (CGRP) in each sample was measured using radioimmunoassay (RIA) as previously described (Chen et al., 1996). At the end of the release protocol, CGRP is extracted from the cultures and total content measured using RIA.

Data set [4] relates to sensory neuronal cultures. Description: phospho-H2AX immunoblotting in sensory neuronal cultures (Example 3). The class given is cell-based, rat. To be noted: for effect on cisplatin-induced pH2AX levels (DNA damage): 20 μM for 48 hours prior to and throughout exposure to 10 μM cisplatin. The protocol:
as §1
Immunoblotting was performed as previously described (Kelley et al., 2014). Briefly, cells were lysed in RIPA buffer (Santa Cruz Biotechnology; Santa Cruz, Calif., USA) and protein was quantified using the Lowey assay. Proteins were separated by electrophoresis on a 4-12% SDS-polyacrylamide gel. The gel was transferred to a PVDF membrane and incubated overnight at 4° C. in Tris-buffered saline containing 0.1% Tween-20 (TBST) and 5% nonfat dry milk while gently agitating. Mouse monoclonal antihuman Ape1 antibodies (1:500), mouse monoclonal anti-phospho H2AX antibodies (1:1000), or (3-Actin monoclonal antibody (1:1000) were added to the blocking solution and incubated overnight at room temperature while gently agitating. Antibody binding was detected following appropriate secondary antibody methods using chemiluminescence. The density of the bands was measured using QUALITYONE® software from Bio-Rad (Hercules, Calif.) and data expressed as density normalized to actin.
A general note: In western blotting, separated proteins are transferred to a membrane and probed.

The target in data set [5] is T1, APE1. Description: redox APE1 electrophoretic mobility shift assay (EMSA). In kind it is biochemical. The arrangement: Purified APE1 was reduced with 1.0 mM DTT for 10 minutes. The conditions noted are these: read-out: redox inhibition IC50. As for the experimental part: EMSAs were performed as described (Luo et al., 2012). Purified APE1 was reduced with 1.0 mM DTT for 10 minutes and diluted to a final concentration of 0.006 mM with 0.02 mM DTT in PBS. Reduced APE1 was added to EMSA reaction buffer (10 mM Tris (pH 7.5), 50 mM NaCl, 1 mM MgCl2, 1 mM EDTA, 5% [vol/vol] glycerol) with […] 0.007 mM protein mixture (1:1) of purified truncated c-Jun and c-Fos proteins containing DNA-binding domain and leucine zipper and incubated for 30 minutes at room temperature. The EMSA assay was performed as previously described (Luo et al., 2008; Nyland et al., 2010; Kelley et al., 2011; Luo et al., 2012).
Background: In EMSA bound probe runs differently from free probe, usually more slowly.

The next data set in a line: Pharmacokinetics (PK). The conditions noted are these: in vivo. As for the experimental part: (§2) PK studies were performed in the IU Simon Cancer Center Clinical Pharmacology Analytical Core (CPAC), as previously described for E3330 (Fishel et al., 2011) and standards for the compounds used. P450 metabolism studies using human microsomes were also performed in CPAC directed by Dr. David Jones.

Data set [6] is described as follows: P450 metabolism analysis using human microsomes. The class given is in vitro ADME. The conditions noted are these: human. As for the experimental part: as §2
The subject of the next data set is human microsomes. The data set is described as follows: P450 metabolism analysis using human microsomes. In kind it is in vitro ADME. The conditions noted are these: vs E3330. As for the experimental part: as §2
Data set [7] has as its system Pa03C patient-derived PDAC cells. Description: Tumor and CAF 3D co-cultures, tumor cells. To be noted: tumor alone or co-cultured with CAFs, 12 days in culture, vs vehicle control. The class given is cell-based, human. An excerpt: (§3) Patient-derived tumor cells and CAF19 cells were a kind gift from Dr. Anirban Maitra (The Johns Hopkins University M.D. Anderson Cancer Center) (Jones et al., 2008). All cell lines were authenticated via STR analysis (IDEXX BioResearch) and checked routinely for mycoplasma contamination. Ultra low attachment 96-well plates (Corning Inc., Life Sciences) were used to generate 3-dimensional tumor spheroids in the presence and absence of CAFs, as described previously (Sempere et al., 2011; Arpin, 2015). TdTomato-labeled PDAC cells and EGFP-labeled CAFs are resuspended in colorless DMEM media containing 3% Reduced Growth Factor Matrigel (BD Biosciences) and 5% FBS at a cell ratio of 1:4 (tumor:CAF) and fed on days 4 and 8 following plating. Both cell populations are quantitated for intensity and area via Thermo ArrayScan at day 12 of co-culture.

The subject of a further data set is CAF19 cells. Description: Tumor and CAF 3D co-cultures, CAFs. In kind it is cell-based, human. The conditions noted are these: co-culture with tumor cells, 12 days in culture.
Excerpt: as §3

T1 sequence (P27695 whole entry, species assumed): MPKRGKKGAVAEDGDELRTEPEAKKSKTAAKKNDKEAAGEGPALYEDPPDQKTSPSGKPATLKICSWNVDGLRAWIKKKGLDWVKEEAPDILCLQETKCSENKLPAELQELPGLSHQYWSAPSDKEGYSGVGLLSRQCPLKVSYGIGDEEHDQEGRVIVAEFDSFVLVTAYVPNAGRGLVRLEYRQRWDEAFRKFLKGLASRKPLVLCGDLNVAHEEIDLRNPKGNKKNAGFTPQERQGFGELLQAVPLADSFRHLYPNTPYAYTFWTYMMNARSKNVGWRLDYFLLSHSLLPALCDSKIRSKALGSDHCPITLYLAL

For the compound `CCC/C(=C\C1=C(OC)C(=O)c2ccccc2C1=O)C(=O)N(C)C` [APX2007, (2E)-2-[(3-methoxy-1,4-dioxo-1,4-dihydronapthalen-2-yl)methylidene]-N,N-dimethylpentanamide], the IC50 with NFκB came out at 7 µM. For the same compound, in data set [1], the “effect on cisplatin-induced cell death” value is “did not attenuate the cisplatin-induced cell death” and the “cell death, drug alone” value was “significant increase in cell death”. In addition, the “cell viability, drug alone” value in data set [1] (40 μM, 24 hours) was “significant reduction in cell viability”. On APE1 [2], the “APE1 repair (endonuclease) activity” value is “no effect”. In addition, in [3], the “effect on cisplatin-induced reduction in capsaicin-evoked CGRP release” value (“effect on cisplatin-induced reduction” below) was “did not prevent the cisplatin-induced reduction in release”. Moreover, in data set [3] (72 hours), the “CGRP release, drug alone” value was “did not affect CGRP release” and the “capsaicin-stimulated release of CGRP, drug alone” value was “significant increase in capsaicin-stimulated release”. Further, the “effect on cisplatin-induced pH2AX levels (DNA damage)” value (shortened to “effect … (DNA damage)”) in [4] is “neither APX2007 nor APX2032 (20 μM) altered the ability of cisplatin to produce DNA damage”. On APE1 [5], the concentration for half-maximal inhibition (IC50) was 2 µM.
As to `CCC/C(=C\C1=C(OC)C(=O)c2ccccc2C1=O)C(=O)N(CC)CC` [APX2009, (2E)-2-[(3-methoxy-1,4-dioxo-1,4-dihydronaphthalen-2-yl)methylidene]-N,N-diethylpentanamide], the IC50 turned out to be 7 µM in the data set with NFκB and 1 µM at APE1 [5]. Moreover, the half-life is 25.8 h in the data set “Pharmacokinetics (PK)” and 2.88 h in data set [6]. For the same compound, the “half-life increase compared to E3330” value in the data set “Pharmacokinetics (PK)” is listed as approximately 7 fold. In addition, the “half-life increase, P450 metabolism analysis” value with human microsomes was 8.7 fold. Moreover, the “effect on cisplatin-induced cell death” value in data set [1] is given as “blocked”. Also, the “protection from oxaliplatin-induced cell killing” value in data set [1] (10 or 20 μM, 72-hour treatment, oxaliplatin 24 hours) is recorded as “protected the sensory neuronal cultures from cell killing”. Moreover, the “cell death / cell viability, drug alone” value in [1] (24 hours, E3330 10, 20 or 40 μM, APX2009 various concentrations) is given as “did not result in a significant reduction in cell viability”. On APE1 [2], the “APE1 repair (endonuclease) activity” value is on record as “stimulation of APE1 repair activity”. Further, the “effect on cisplatin-induced reduction” value in data set [3] is recorded as “did not prevent the cisplatin-induced reduction in release”. The “effect on oxaliplatin-induced decrease in CGRP release” value in data set [3] (48 hours prior to and throughout exposure to oxaliplatin for 24 hours) is “prevented the oxaliplatin-induced decrease in CGRP release”. Besides, in data set [3] (72 hours, E3330 20 μM, APX2009 10 or 20 μM, compared to untreated cells), the “basal (resting) release or release of CGRP stimulated by 30 nM capsaicin, drug alone” value is on record as “no significant change”. Besides, the “effect … (DNA damage)” value in data set [4] is “significantly reduced the levels of pH2AX”. Moreover, in [4] (20 μM, 24 and 48 hr treatments of 30 μM oxaliplatin), the “phosphorylation of H2AX after oxaliplatin” value was “significantly reduced the phosphorylation of H2AX”. Moreover, the “tumor intensity and area in 3D spheroids” value in [7] is “statistical differences were observed for the tumor alone or tumor co-cultured with CAFs”. The “CAF intensity and area in 3D spheroids” value in the data set on CAF19 cells was “not significantly affected”.
`COC1=C(/C=C(\C)C(=O)N(C)C)C(=O)c2ccccc2C1=O` [APX2032]: the IC50 in the data set on NFκB was 7 µM. In addition, in data set [1], the “effect on cisplatin-induced cell death” value is given as “did not attenuate the cisplatin-induced cell death” and the “cell death, drug alone” value was “significant increase in cell death”. In addition, the “cell viability, drug alone” value in data set [1] (20 μM or 40 μM, 24 hours) was “significant reduction in cell viability”. Besides, the “APE1 repair (endonuclease) activity” value at APE1 [2] was “no effect”. The “effect on cisplatin-induced reduction” value in data set [3] is “did block the effect of cisplatin”. For the same compound, in data set [3] (72 hours), the “CGRP release, drug alone” value is recorded as “did not affect CGRP release” and the “capsaicin-stimulated release of CGRP, drug alone” value is “significant increase in capsaicin-stimulated release”. Also, the “effect … (DNA damage)” value in [4] was “neither APX2007 nor APX2032 (20 μM) altered the ability of cisplatin to produce DNA damage”. Moreover, the concentration for half-maximal inhibition (IC50) on APE1 [5] amounted to 1 µM.

One may read the IC50 as the concentration needed to halve the response being measured. As a reminder, the half-life is the time in which the quantity being followed falls by half. Read a low half-life as fast loss.
